In US7241732B2, “Compositions and methods involved in bone growth” (University of Rochester, priority 2001, dated 2007):

Columns and labels:
SW408 cells = assay: P3TP-Lux reporter in Smad4 deficient cells; format: cell-based
From the text: SW408 cells are deficient in Smad4, a requisite co-factor for Smad2 and 3 signaling. […] However, when the cells are transfected with both Smad4 and TRIP-1, restoration of Smad signaling can occur. All values are the mean±SEM. * p 0.05 and ** p 0.01 as compared to control.

[1] = tested on: P3TP-Lux reporter in MG-63 cells; assay: P3TP-Lux Smad 2,3 reporter in osteoblast cell lines; format: cell-based, human
From the text: P3TPLux is a Smad 2, 3 sensitive reporter. […] Co-transfection of the cells with a dominant negative TGFβ type II receptor blocks all TRAP and TGFβ signaling. Each bar is the mean of at least four determinations±SEM. * p 0.05 and ** p 0.01 as compared to control. The data for MG-63 cells are shown. The data for the SaOS2 cells are the same (data not shown).
The data with the MG-63 cell is what is shown.

isolated osteoblasts = assay: Osteoblast phenotypic markers (alkaline phosphatase, Runx2, OPG, collagen); format: cell-based, rat; settings: TRAP 10 μg/ml, TGFβ 2 ng/ml; percent of control, FIG. 14
Protocol: The qualitative pattern of stimulation by TRAP and TGFβ for markers of osteoblast differentiation is similar. […] Alkaline phosphatase (Alk. Phos.) was measured in a direct biochemical assay. Runx2 and osteoprotegerin (OPG) were quantified in an ELISA assay using commercially available antibodies. Collagen was measured by determining the amount of collagenase-digestible protein present in pre-labeled osteoblasts (34). All data are expressed as a percent of the control, untreated cells. All data points are the mean±one SEM. * p 0.05. ** p 0.01.
Isolated osteoblasts were prepared from neo-natal rat calvaria as previously described (Martinez D A, et al., J. Cellular Biochemistry 59: 246-257 (1995)). Alkaline phosphatase assays and standard Western analyses were performed as previously described (Ionescu A M. ET AL., Journal of Biological Chemistry. 276:11639-47 (2001)).
(§1) After incubation, the plates were washed with PBS-Tween.
Osteoblast differentiation at sites of bone remodeling is mediated by a number of regulatory factors. One of the key factors is TGFβ. In most systems, including the typically the disclosed system, TGFβ is known to be a potent enhancer of the osteoblast phenotype.

D14 primary osteoblasts = assay: OPG sandwich ELISA; format: cell-based; settings: following treatment
Protocol: OPG is the deccoy receptor for the RNAKL and stop the osteoclastogenesis. RANKL and OPG has been proposed for the regulation of osteoclast differentiation function. Both OPG and RANKL can themselves also be regulated by TGF-β (MacDonald R G, Science 239:1134-7, (1988)). […] This lower the secretion amount of OPG the less the protection afforded from the osteoclast.
as §1

[2] = tested on: TGFβ reporter construct (P3TPlux); assay: P3TP lux TGFβ reporter in transfected osteoblasts; format: cell-based; settings: FIG. 9
Protocol: Note the difference in scales. N=4-6.
Functionality of TRIP for TGFβ signaling was determined by measuring the activation of a TGFβ promoter/reporter construct, P3TP Lux (see Experimental Design for a complete description of this construct).
Osteoblasts, cultured at 30-40% confluence in 6-well plates, are transfected on day 2 after plating using the transfection reagent Superfect (Qiagen Santa Clarita, Calif.) according to the manufacturer's guidelines. Individual experiments are internally controlled for amount of total plasmid DNA, with equal amounts of p3TP-Lux reporter, control SV40-renilla plasmid for normalization of transfection efficiency, and target construct and/or vector control DNA for all co-transfection experiments. Following transfection, the cells are placed in media containing DMEM, Penicillin/Streptomycin, and 10% NuSerum IV. After 12 hours, they are incubated for 6 hours in serum-free media (containing DMEM, hyaluronidase 4 U/ml, Penicillin/Streptomycin, and supplemented with 10 pM triiodothyronine (Sigma, St. Louis, Mo.), 60 ng/ml insulin, and 1 mM cysteine (Sigma, St. Louis, Mo.)) plus the factor or cytokine of interest. Eighteen hours later, the cells are harvested and assayed for luciferase activity using the Promega dual luciferase assay system. Renilla luciferase values were used to normalize each sample for transfection efficiency.

## TGFβ
SW408 cells
  activation of reporter gene in Smad4 deficient cells: neither TGFβ nor TRAP could activate the reporter gene
SW408 cells; cells transfected with Smad4 and TRIP-1
  signaling after restoration of Smad4 and TRIP-1 protein: restores TGFβ and TRAP signaling
[1]
  P3TP-Lux activation with co-transfected dominant negative type II TGFβ receptor: block both TGFβ and TRAP activation of the pathway
[1]; TRAP 10 μg/ml, TGFβ 5 ng/ml, MG-63 shown, SaOS2 the same
  upregulation of P3TP-Lux reporter gene: strongly upregulate a reporter gene
Isolated osteoblasts
  effect on alkaline phosphatase activity, Runx 2, OPG and collagen protein synthesis: an increase in alkaline phosphatase activity, and an increase in Runx 2, osteoprotegerin (OPG) and collagen protein synthesis
D14 primary osteoblasts
  level of OPG: less Osteoprotegrin (OPG) production
[2]
  activation of P3TP lux: strongly activate P3TP lux
